Measurements as given in patent US10391106B2, “19-nor C3, 3-disubstituted C21-C-bound heteroaryl steroids and methods of use thereof” (Sage Therapeutics, Inc., priority 2013, dated 2019).

target: GABAA-R (rat brain cortical membranes); assay: Steroid inhibition of [35S]-TBPS binding (radioligand displacement); conditions: in the presence of 5 μM GABA
Description: Steroid Inhibition of TBPS Binding
[35S]-t-Butylbicyclophosphorothionate (TBPS) binding assays using rat brain cortical membranes in the presence of 5 μM GABA has been described (Gee et al, J. Pharmacol. Exp. Ther. 1987, 241, 346-353; Hawkinson et al, Mol. Pharmacol. 1994, 46, 977-985; Lewin, A. H et al., Mol. Pharmacol. 1989, 35, 189-194).
Briefly, cortices are rapidly removed following decapitation of carbon dioxide-anesthetized Sprague-Dawley rats (200-250 g). The cortices are homogenized in 10 volumes of ice-cold 0.32 M sucrose using a glass/teflon homogenizer and centrifuged at 1500×g for 10 min at 4° C. The resultant supernatants are centrifuged at 10,000×g for 20 min at 4° C. to obtain the P2 pellets. The P2 pellets are resuspended in 200 mM NaCl/50 mM Na-K phosphate pH 7.4 buffer and centrifuged at 10,000×g for 10 min at 4° C. This washing procedure is repeated twice and the pellets are resuspended in 10 volumes of buffer. Aliquots (100 μL) of the membrane suspensions are incubated with 3 nM [^35S]-TBPS and 5 μL aliquots of test drug dissolved in dimethyl sulfoxide (DMSO) (final 0.5%) in the presence of 5 μM GABA. The incubation is brought to a final volume of 1.0 mL with buffer. […] Following a 90 min incubation at room temp, the assays are terminated by filtration through glass fiber filters (Schleicher and Schuell No. 32) using a cell harvester (Brandel) and rinsed three times with ice-cold buffer. Filter bound radioactivity is measured by liquid scintillation spectrometry. Non-linear curve fitting of the overall data for each drug averaged for each concentration is done using Prism (GraphPad). […] The concentration of test compound producing 50% inhibition (IC50) of specific binding and the maximal extent of inhibition (Imax) are determined for the individual experiments with the same model used for the overall data and then the means ±SEM.s of the individual experiments are calculated.
Various compounds are or can be screened to determine their potential as modulators of [^35S]-TBPS binding in vitro. These assays are or can be performed in accordance with the above discussed procedures.

Compound	IC50
Cc1nc(CC(=O)[C@H]2CC[C@H]3[C@@H]4CC[C@@H]5C[C@](C)(O)CC[C@@H]5[C@H]4CC[C@]23C)oc1C [SA-1]	< 50 nM
C[C@@]1(O)CC[C@H]2[C@H](CC[C@@H]3[C@@H]2CC[C@]2(C)[C@@H](C(=O)Cc4ccccn4)CC[C@@H]32)C1 [SA-2]	< 50 nM
Cn1ccnc1CC(=O)[C@H]1CC[C@H]2[C@@H]3CC[C@@H]4C[C@](C)(O)CC[C@@H]4[C@H]3CC[C@]12C [SA-3]	100 to 500 nM
Cc1cccc(CC(=O)[C@H]2CC[C@H]3[C@@H]4CC[C@@H]5C[C@](C)(O)CC[C@@H]5[C@H]4CC[C@]23C)n1 [SA-4]	< 50 nM
C[C@@]1(O)CC[C@H]2[C@H](CC[C@@H]3[C@@H]2CC[C@]2(C)[C@@H](C(=O)Cc4ccccc4)CC[C@@H]32)C1 [SA-5]	< 50 nM
C[C@@]1(O)CC[C@H]2[C@H](CC[C@@H]3[C@@H]2CC[C@]2(C)[C@@H](C(=O)Cc4nccs4)CC[C@@H]32)C1 [SA-7]	< 50 nM
Cc1nc(CC(=O)[C@H]2CC[C@H]3[C@@H]4CC[C@@H]5C[C@](C)(O)CC[C@@H]5[C@H]4CC[C@]23C)sc1C [SA-8]	50 to 100 nM
C[C@@]1(O)CC[C@H]2[C@H](CC[C@@H]3[C@@H]2CC[C@]2(C)[C@@H](C(=O)Cc4cccnc4)CC[C@@H]32)C1 [SA-10]	< 50 nM

target: T1, GABAA receptor α4β3δ (Homo sapiens, UniProt P28472+P48169); assay: Patch clamp electrophysiology, manual patch in CHO cells; type: cell-based; conditions: 10 μM test article, potentiation of GABA EC20 (2 μM) current, read-out: GABA (α4β3δ) Manual patch in CHO, % efficacy at 10 μM
T1 construct: expressed in transfected cells; host or cells: CHO cells (transiently transfected, Lipofectamine)
T1 sequence (P48169 36-554): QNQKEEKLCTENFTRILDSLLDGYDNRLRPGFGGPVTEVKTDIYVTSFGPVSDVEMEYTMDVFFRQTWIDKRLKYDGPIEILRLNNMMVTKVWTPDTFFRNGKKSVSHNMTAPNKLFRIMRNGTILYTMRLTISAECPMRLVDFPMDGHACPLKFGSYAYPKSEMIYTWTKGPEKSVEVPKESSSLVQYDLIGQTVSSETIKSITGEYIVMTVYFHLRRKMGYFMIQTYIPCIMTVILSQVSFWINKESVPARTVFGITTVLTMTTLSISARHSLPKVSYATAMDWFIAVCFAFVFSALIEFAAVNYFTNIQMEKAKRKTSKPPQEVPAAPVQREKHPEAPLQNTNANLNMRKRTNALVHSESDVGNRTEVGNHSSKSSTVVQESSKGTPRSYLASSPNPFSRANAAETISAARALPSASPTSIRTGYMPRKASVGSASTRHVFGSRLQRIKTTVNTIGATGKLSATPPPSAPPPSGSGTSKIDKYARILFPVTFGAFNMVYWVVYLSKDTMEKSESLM
T1 sequence (P28472 26-473): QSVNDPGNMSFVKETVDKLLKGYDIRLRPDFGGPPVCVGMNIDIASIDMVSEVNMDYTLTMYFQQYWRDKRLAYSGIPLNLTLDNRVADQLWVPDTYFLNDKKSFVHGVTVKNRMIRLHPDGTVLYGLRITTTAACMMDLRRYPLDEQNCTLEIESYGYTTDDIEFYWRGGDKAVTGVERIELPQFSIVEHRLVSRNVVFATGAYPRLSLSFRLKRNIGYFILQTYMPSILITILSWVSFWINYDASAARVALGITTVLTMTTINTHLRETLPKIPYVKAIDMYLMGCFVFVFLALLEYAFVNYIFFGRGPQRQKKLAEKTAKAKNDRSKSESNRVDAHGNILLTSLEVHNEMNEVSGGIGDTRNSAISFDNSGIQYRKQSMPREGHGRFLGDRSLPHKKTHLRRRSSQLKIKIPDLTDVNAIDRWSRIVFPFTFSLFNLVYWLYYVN
T1 sequence (O14764 25-452 partner): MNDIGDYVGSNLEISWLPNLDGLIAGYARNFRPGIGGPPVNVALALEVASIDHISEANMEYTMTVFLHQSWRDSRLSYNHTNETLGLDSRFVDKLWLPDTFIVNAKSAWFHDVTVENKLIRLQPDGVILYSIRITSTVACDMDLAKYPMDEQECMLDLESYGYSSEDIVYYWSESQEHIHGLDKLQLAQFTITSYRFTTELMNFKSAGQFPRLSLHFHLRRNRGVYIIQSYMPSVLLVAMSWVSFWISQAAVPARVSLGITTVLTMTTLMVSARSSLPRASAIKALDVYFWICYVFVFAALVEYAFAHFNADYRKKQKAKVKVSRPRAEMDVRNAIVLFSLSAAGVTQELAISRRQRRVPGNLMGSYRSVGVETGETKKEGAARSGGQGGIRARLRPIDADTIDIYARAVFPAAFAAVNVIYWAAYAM
Description: (§1) Patch Clamp Electrophysiology of Recombinant α1β2γ2 and α4β3δ GABAA Receptors
(§2) Cellular electrophysiology is used to measure the pharmacological properties of our GABAA receptor modulators in heterologous cell systems. Each compound is tested for its ability to affect GABA mediated currents at a submaximal agonist dose (GABA EC20=2 μM). LTK cells are stably transfected with the α1β2γ2 subunits of the GABA receptor and CHO cells are transiently transfected with the α4β3δ subunits via the Lipofecatamine method. Cells were passaged at a confluence of about 50-80% and then seeded onto 35 mm sterile culture dishes containing 2 ml culture complete medium without antibiotics or antimycotics. Confluent clusters of cells are electrically coupled (Pritchett et al, Science, 1988, 242, 1306-1308.). Because responses in distant cells are not adequately voltage clamped and because of uncertainties about the extent of coupling (Verdoorn et al., Neuron 1990, 4, 919-928.), cells were cultivated at a density that enables the recording of single cells (without visible connections to other cells).
Whole cell currents were measured with HEKA EPC-10 amplifiers using PatchMaster software or by using the high throughput QPatch platform (Sophion). Bath solution for all experiments contained (in mM): NaCl 137 mM, KCl 4 mM, CaCl2 1.8 mM, MgCl2 1 mM, HEPES 10 mM, D-Glucose 10 mM, pH (NaOH) 7.4.. […]

Compound	Emax at 10 µM
Cc1nc(CC(=O)[C@H]2CC[C@H]3[C@@H]4CC[C@@H]5C[C@](C)(O)CC[C@@H]5[C@H]4CC[C@]23C)oc1C [SA-1]	10 to 100%
C[C@@]1(O)CC[C@H]2[C@H](CC[C@@H]3[C@@H]2CC[C@]2(C)[C@@H](C(=O)Cc4ccccn4)CC[C@@H]32)C1 [SA-2]	100 to 500%

target: T2, GABAA receptor α1β2γ2 (Homo sapiens, UniProt P14867+P47870); assay: Patch clamp electrophysiology, Qpatch in Ltk cells; type: cell-based; conditions: 10 μM test article, potentiation of GABA EC20 (2 μM) current, read-out: GABA (α1β2γ2) Qpatch in Ltk, % efficacy at 10 μM
T2 construct: expressed in transfected cells; host or cells: LTK cells (stably transfected)
T2 sequence (P14867 28-456): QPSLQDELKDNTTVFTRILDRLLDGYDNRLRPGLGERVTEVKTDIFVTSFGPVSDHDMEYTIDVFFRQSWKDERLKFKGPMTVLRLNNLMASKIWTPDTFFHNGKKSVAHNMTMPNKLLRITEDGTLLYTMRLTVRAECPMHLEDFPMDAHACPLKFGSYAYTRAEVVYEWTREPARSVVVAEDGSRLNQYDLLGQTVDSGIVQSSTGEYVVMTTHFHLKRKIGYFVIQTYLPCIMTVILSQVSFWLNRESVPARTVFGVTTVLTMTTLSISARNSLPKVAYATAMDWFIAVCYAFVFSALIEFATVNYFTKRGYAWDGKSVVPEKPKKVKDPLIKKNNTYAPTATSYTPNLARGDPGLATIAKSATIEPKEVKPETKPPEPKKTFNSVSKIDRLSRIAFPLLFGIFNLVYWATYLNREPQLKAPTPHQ
T2 sequence (P47870 25-512 limits assumed): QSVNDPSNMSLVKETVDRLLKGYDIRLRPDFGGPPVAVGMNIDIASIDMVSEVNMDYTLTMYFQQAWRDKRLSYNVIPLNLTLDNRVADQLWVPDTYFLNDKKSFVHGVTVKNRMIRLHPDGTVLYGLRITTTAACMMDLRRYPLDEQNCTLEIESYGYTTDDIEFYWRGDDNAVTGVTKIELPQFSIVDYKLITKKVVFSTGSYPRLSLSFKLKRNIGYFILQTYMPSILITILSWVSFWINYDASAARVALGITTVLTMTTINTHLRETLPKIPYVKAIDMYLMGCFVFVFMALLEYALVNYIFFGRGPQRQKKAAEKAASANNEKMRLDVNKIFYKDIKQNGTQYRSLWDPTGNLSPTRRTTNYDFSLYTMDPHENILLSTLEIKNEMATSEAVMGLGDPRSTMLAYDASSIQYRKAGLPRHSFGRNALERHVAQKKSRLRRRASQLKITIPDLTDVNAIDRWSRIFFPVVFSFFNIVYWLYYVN
T2 sequence (P18507 40-475 partner): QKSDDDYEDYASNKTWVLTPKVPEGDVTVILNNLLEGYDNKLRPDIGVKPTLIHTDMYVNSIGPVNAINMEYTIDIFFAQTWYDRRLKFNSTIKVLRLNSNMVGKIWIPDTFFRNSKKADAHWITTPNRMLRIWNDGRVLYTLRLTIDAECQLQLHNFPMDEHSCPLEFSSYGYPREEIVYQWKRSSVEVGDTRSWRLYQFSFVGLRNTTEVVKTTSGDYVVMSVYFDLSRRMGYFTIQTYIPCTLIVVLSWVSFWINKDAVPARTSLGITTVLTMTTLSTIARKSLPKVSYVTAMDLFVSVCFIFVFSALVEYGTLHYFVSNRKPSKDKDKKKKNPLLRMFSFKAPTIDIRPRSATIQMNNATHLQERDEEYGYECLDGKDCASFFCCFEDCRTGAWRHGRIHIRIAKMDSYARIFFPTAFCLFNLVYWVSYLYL
Description: as §1, §2
Whole cell currents were measured with HEKA EPC-10 amplifiers using PatchMaster software or by using the high throughput QPatch platform (Sophion). Bath solution for all experiments contained (in mM): NaCl 137 mM, KCl 4 mM, CaCl2 1.8 mM, MgCl2 1 mM, HEPES 10 mM, D-Glucose 10 mM, pH (NaOH) 7.4.. In some cases 0.005% cremophor was also added. Intracellular (pipette) solution contained: KCl 130 mM, MgCl2 1 mM, Mg-ATP 5 mM, HEPES 10 mM, EGTA 5 mM, pH 7.2. During experiments, cells and solutions were maintained at room temperature (19° C.-30° C.). For manual patch clamp recordings, cell culture dishes were placed on the dish holder of the microscope and continuously perfused (1 ml/min) with bath solution. After formation of a Gigaohm seal between the patch electrodes and the cell (pipette resistance range: 2.5 MΩ-6.0 MΩ; seal resistance range:>1 GΩ) the cell membrane across the pipette tip was ruptured to assure electrical access to the cell interior (whole-cell patch-configuration). For experiments using the QPatch system, cells were transferred as suspension to the QPatch system in the bath solution and automated whole cell recordings were performed.
Cells were voltage clamped at a holding potential of −80 mV. For the analysis of test articles, GABA receptors were stimulated by 2 μM GABA after sequential pre-incubation of increasing concentrations of the test article. Pre-incubation duration was 30 s and the duration of the GABA stimulus was 2 s. Test articles were dissolved in DMSO to form stock solutions (10 mM). Test articles were diluted to 0.01, 0.1, 1, and 10 μM in bath solution. All concentrations of test articles were tested on each cell. The relative percentage potentiation was defined as the peak amplitude in response to GABA EC20 in the presence of the test article divided by the peak amplitude in response to GABA EC20 alone, multiplied by 100.

Compound	Emax at 10 µM
Cc1nc(CC(=O)[C@H]2CC[C@H]3[C@@H]4CC[C@@H]5C[C@](C)(O)CC[C@@H]5[C@H]4CC[C@]23C)oc1C [SA-1]	> 500%
C[C@@]1(O)CC[C@H]2[C@H](CC[C@@H]3[C@@H]2CC[C@]2(C)[C@@H](C(=O)Cc4ccccn4)CC[C@@H]32)C1 [SA-2]	100 to 500%
Cn1ccnc1CC(=O)[C@H]1CC[C@H]2[C@@H]3CC[C@@H]4C[C@](C)(O)CC[C@@H]4[C@H]3CC[C@]12C [SA-3]	100 to 500%
Cc1cccc(CC(=O)[C@H]2CC[C@H]3[C@@H]4CC[C@@H]5C[C@](C)(O)CC[C@@H]5[C@H]4CC[C@]23C)n1 [SA-4]	100 to 500%
C[C@@]1(O)CC[C@H]2[C@H](CC[C@@H]3[C@@H]2CC[C@]2(C)[C@@H](C(=O)Cc4nccs4)CC[C@@H]32)C1 [SA-7]	> 500%
C[C@@]1(O)CC[C@H]2[C@H](CC[C@@H]3[C@@H]2CC[C@]2(C)[C@@H](C(=O)Cc4cnccn4)CC[C@@H]32)C1 [SA-9]	100 to 500%
